Results as given in patent US5179093A, “Quinoline-diones” (Schering Corporation, priority 1991, dated 1993).
Values after ≈ are worked out from the molar mass of the structure shown.

Legend:
HSV-2, strain MS [1] = assay: Therapeutic guinea pig model of HSV infection (genital lesions); format: in vivo
Procedure: The in vivo assessment of anti-HSV efficacy was determined in the prophylactic guinea pig model of HSV infection described by Stanberry et al (1982) The Journal of Infectious Diseases-vol. 146, No. 3, pages 397-404, which is hereby incorporated by reference. Dosing of guinea pigs was comprised of an initial treatment with test compound given 24 hours prior to virus infection and subsequent administration of the compound every eight hours (T.I.D.) for a total of 10 days. Test compounds were administered subcutaneously in 0.5% buffered methyl cellulose at a dose of 60 mg per kg body weight of the animal. Animals were monitored daily for the development of genital lesions and neurological symptomology, both of which were recorded and compared to the results obtained with parallel groups which received placebo or acyclovir treatment. Efficacy was evaluated for each compound by scoring the ability of the compound to ameliorate genital lesions produced by infection with HSV-2, strain MS, expressed as Activity Coefficients. The Activity Coefficients. were calculated as follows: The ability of a test compound to ameliorate lesions was plotted graphically with the number of days being on one axis, and the number of lesions being on the other axis. The area under the resultant curve was put in the numerator of a fraction with the denominator either being the area under a similar curve where placebo was employed(EXP/PL), or the area under the curve where acyclovir was employed (EXP/ACV). Thus (Exp/PL) is the ratio of test compound to placebo. (Exp/ACV) is the ratio of test compound to acyclovir. […] In the therapeutic guinea pig model, dosing of guinea pigs started 24 hours after they were infected with the virus. Subsequent administration of the test compound was done every eight hours for a total of ten days. Activity coefficients were calculated in the same manner as described for the prophylactic guinea pig model above.

[2] = Compound toxicity assay: inhibition of HeLa cell translation (^3 H-LEU assay); format: cell-based; conditions: human; HeLa cells, overnight (24 hours) treatment, tritiated leucine incorporation; read-out: CYTOTOXICITY ^3 H--LEU ASSAY IC50
Procedure: HeLa cells were treated with inhibitory compound for 24 hours, after which levels of translational activity were assayed.
For assay of translational activity, HeLa cultures were grown to 80% confluency in 96 well microtiter plates, treated with appropriate concentrations of compound in 2% EMEM during an overnight incubation at 37° C., then rinsed with HBSS and overlaid with […] of 2% EMEM containing 8 uCi of tritiated leucine (^3 H-LEU, 141 Ci/mMol, Amersham Corp., Arlington Heights Ill.). After 1 hr incubation at 36.5° C., the cells were rinsed twice with phosphate buffered saline (PBS) and lysed in 400 ul/well of 1×PBS, 0.5% sodium dodecyl sulphate (SDS). After a 10 minute incubation at 36.5° C., the contents of the well were transferred to a well in a Millititer HA microfiltration plate (Millipore Corp., Bedford, MA). The TCA insoluble proteins were precipitated onto the filter disc by a 10 minute fixation with 5% TCA, followed by filtration under vacuum and three 10 minute rinses with 95% ethanol. The filters were dried at room temperature, cut from the milltitier plate and transferred to scintillation vials. TCA precipitable counts were assayed in 5 ml of Scintisol (Isolab, Akron, Ohio). The inhibitory activity of a compound was plotted versus the concentration and an IC50 value (that concentration of the compound required to decrease cellular translational activity by 50%) was derived for each compound.

HSV-2 (strain MS) = assay: Transient expression of beta galactosidase in transfected HeLa cells superinfected with HSV-2 (HSV-β-GAL assay); format: cell-based; conditions: Human alphaherpesvirus 2, plasmid pON 245^ori-, moi=5 pfu/cell, 24 hours, read-out: ANTI-HSV ACTIVITY HSV-β-GAL ASSAY IC50
Procedure: HeLa and Vero cell cultures were maintained in Eagles Minimal Essential Medium (EMEM) which was supplemented with glutamine, penicillin, streptomycin and 10% fetal calf serum (10% EMEM). Stock cultures of HSV-2 (strain MS available from ATCC VR-540) were grown in and harvested from Vero cells. Viral stocks were titered in Vero cells according to established procedures.
Plasmid pON 245^ori- contains the promoter of the HSV-1 thymidine kinase (tk) gene located immediately 5' of the E. coli lac Z gene. In this arrangement, the tk promoter controls transcription from the bacterial gene in transient expression assays. Additionally, an SV40 polyadenylation signal is present at the 3' end of the lac Z gene to allow for the efficient translation of the mRNA in eucaryotic cells. The expression of beta galactosidase in a transient assay using pON 245^ori- is dependent upon superinfection of the transfected cells with HSV. […] For example see U.S. application Ser. No. 07/435,491 filed Sep. 5, 1989, the disclosure of which is incorporated herein by reference thereto.
HeLa cells were seeded into 96 well microtiter plates and allowed to grow to 80% confluency (approximately 35,000 cells/well). One half microgram of plasmid pON 245^ori- DNA was introduced into the cells of each well by the […] precipitation technique (Grahman and Van der Eb, 1973). Four to six hours later, the cells were rinsed with hank's Balanced Salt Solution (HBSS), overlaid with 10% EMEM and incubated at 37° C. At 24 hrs post-transfection, cells were rinsed, overlaid with 10% EMEM again and re-incubated at 37° C. At 48 hrs post-transfection, cells were rinsed and overlaid with either EMEM containing 2% fetal calf serum (2% EMEM), 2% EMEM containing HSV-2 (strain MS, Multiplicity of Infection [moi]=5 pfu/cell) or 2% EMEM containing HSV-2 and the appropriate concentration of Schering compound to be tested. Twenty-four hours later, the cells were harvested and assayed for beta galactosidase activity as described below.
All determinations of beta galactosidase activity were performed in 96 well microtiter plates. The intracellular level of beta galactosidase activity in each well was determined from cell lysates of the monolayer cultures. Aliquots were assayed by incubation in the presence of beta galactosidase substrate, 4-methylumbelliferyl-β-D-galactoside (MUG, 125 ug/ml, Sigma), for 2 hours. The generation of fluorescent product was quantified on a Microfluor microfluorimeter (Dynatech) after addition of 0.1M glycine, pH 10.3 (Spaete and Mocarski, 1985). The inhibitory activity of a compound was plotted versus the concentration and an IC50 value (the concentration of compound required to reduce beta glactosidase expression by 50%) was obtained for each compound tested.

HSV-2, strain MS [3] = assay: Prophylactic guinea pig model of HSV infection (genital lesions); format: in vivo; conditions: 60 mpk × 3/24 hr, sc
Procedure: The in vivo assessment of anti-HSV efficacy was determined in the prophylactic guinea pig model of HSV infection described by Stanberry et al (1982) The Journal of Infectious Diseases-vol. 146, No. 3, pages 397-404, which is hereby incorporated by reference. Dosing of guinea pigs was comprised of an initial treatment with test compound given 24 hours prior to virus infection and subsequent administration of the compound every eight hours (T.I.D.) for a total of 10 days. Test compounds were administered subcutaneously in 0.5% buffered methyl cellulose at a dose of 60 mg per kg body weight of the animal. Animals were monitored daily for the development of genital lesions and neurological symptomology, both of which were recorded and compared to the results obtained with parallel groups which received placebo or acyclovir treatment. Efficacy was evaluated for each compound by scoring the ability of the compound to ameliorate genital lesions produced by infection with HSV-2, strain MS, expressed as Activity Coefficients. The Activity Coefficients. were calculated as follows: The ability of a test compound to ameliorate lesions was plotted graphically with the number of days being on one axis, and the number of lesions being on the other axis. […]

herpes virus = conditions: added to lidocaine or lidocaine hydrochloride; Haines et al.; cited from earlier work

Compound	CC50 at 24 h [2] [µg/mL]	IC50 (HSV-2 (strain MS)) [µg/mL]	other results
Nc1nc2c(ncn2COCCO)c(=O)[nH]1 [ACV, 9-[(2-hydroxyethoxy)methyl]guanine, reference compound]	–	–	efficacy of acyclovir in the therapeutic study (HSV-2, strain MS [1]; therapeutic study with Example 45): not efficaceous
O=C1C(=CNCc2ccccc2)C(=O)N(Cc2ccccc2)c2ccccc21 [EX. 23, (E,Z)1-Benzyl-3-Benzylaminomethylene-Quinolin-2,4(1H)-Dione]	> 100	5 (≈ 13.6 µM)	Activity Coefficient (Exp/ACV) (HSV-2, strain MS [3]; lesion score AUC days 1-10, ratio test compound to acyclovir): 4.05 ± 2.21; Activity Coefficient (Exp/PL) (HSV-2, strain MS [3]; lesion score AUC days 1-10, ratio test compound to placebo): 0.67 ± 0.03
CC(NCc1ccccc1)=C1C(=O)Oc2ncccc2C1=O [EX. 31, 3-[1-Benzylaminoethylidine]-2,4-dioxo-2,3-dihydro-4H-pyrido-[2,3-b]-pyran]	> 100	11 (≈ 37.4 µM)	–
CN(C)C=C1C(=O)c2cccnc2N(c2ccccc2)C1=O [EX. 32, 1-Phenyl-3-(dimethylaminomethylene)-3,4-dihydro-2H-[1,8]-naphthyridine-2,4-dione]	> 100	18 (≈ 61.4 µM)	–
C=CCNC=C1C(=O)Oc2ccccc2C1=O [EX. 34, E,Z-3-[Allylaminomethylene]-dihydrobenzo-[b]-pyran-2,4-dione]	46 (≈ 201 µM)	8 (≈ 34.9 µM)	–
CCNC=C1C(=O)c2cccnc2N(c2ccccc2)C1=O [EX. 35, 1-Phenyl-E,Z-3-[ethylaminomethylene]-3,4-dihydro-2H-[1,8]-naphthyridine-2,4-dione]	> 50	7 (≈ 23.9 µM)	–
O=C1C(=CNCc2ccccc2)C(=O)N(c2ccccc2)c2ncccc21 [EX. 36, 1-Phenyl-E,Z-3-[benzylaminomethylene]-3,4-dihydro-2H-[1,8]-naphthyridine-2,4-dione]	42 (≈ 118 µM)	22 (≈ 61.9 µM)	–
Cc1cccc(NC=C2C(=O)c3cccnc3N(c3ccccc3)C2=O)n1 [EX. 37, 1-Phenyl-E,Z-3-[(6-methyl-2-pyridylamino)methylene]-3,4-dihydro-2H-[1,8]-naphthyridine-2,4-dione]	56 (≈ 157 µM)	22 (≈ 61.7 µM)	–
CCCCCCCN1C(=O)C(=CNN2CCOCC2)C(=O)c2ccccc21 [EX. 39, (E,Z)-1-heptyl-3-[(4-morpholino)aminomethylene]-quinolin-2,4(1H)dione]	29 (≈ 78.1 µM)	4 (≈ 10.8 µM)	–
CCCCCCCN1C(=O)C(=CNC23CC4CC(CC(C4)C2)C3)C(=O)c2ccccc21 [EX. 40, (E,Z)-1-heptyl-3-[1-adamantylaminomethylene]-quinolin-2,4(1H)dione]	33 (≈ 78.5 µM)	5 (≈ 11.9 µM)	–
O=C1C(=CNCc2cnc[nH]2)C(=O)N(Cc2ccccc2)c2ccccc21 [EX. 41, (E,Z)-1-benzyl-3-[(1H-5-imidazolylmethyl)aminomethylene]-quinolin-2,4(1H)dione]	34 (≈ 94.9 µM)	8 (≈ 22.3 µM)	–
CCCCCCN1C(=O)C(=CN[C@H]2C(O)O[C@H](CO)[C@@H](O)[C@@H]2O)C(=O)c2ccccc21 (stereo partly shown) [EX. 42, (E,Z)-1-hexyl-3-(D) glucosaminomethylene-quinolin-2,4(1H)dione]	25 (≈ 57.5 µM)	10 (≈ 23 µM)	–
COc1ccc(OCCCOCN2C(=O)C(=CNCc3ccncc3)C(=O)c3ccccc32)c(Cl)c1 [EX. 43, (E,Z) 1-[3(2-chloro-4-methoxyphenoxy)-propyloxymethyl]-3-(4-pyridylmethylamino)methylene-quinolin-2,4(1H)dione]	30 (≈ 59.1 µM)	10 (≈ 19.7 µM)	–
CCNC=C1C(=O)c2ccccc2N(C)C1=O [EX. 44, (E,Z) 1-methyl-3-ethylaminomethylene-quinolin-2,4(1H)dione]	43 (≈ 187 µM)	14 (≈ 60.8 µM)	–
O=C1C(=CNCc2ccccc2)C(=O)N(Cc2ccccc2)c2ccsc21 [EX. 45, (E,Z) 4-benzyl-6-benzylaminomethylene-thieno[3,2-b]pyridine-5,7(4H,6H)-dione]	40 (≈ 107 µM)	4 (≈ 10.7 µM)	Activity Coefficient (Exp/PL) (HSV-2, strain MS [1]; 30 mpk × 3/24 hr, sc, therapeutic, lesion score AUC days 1-10, ratio test compound to placebo): 0.71; Activity Coefficient (Exp/ACV) (HSV-2, strain MS [1]; 30 mpk × 3/24 hr, sc, therapeutic, lesion score AUC days 1-10, ratio to acyclovir, ACV was not efficaceous in this study): 0.93
O=C1C(=CNCc2ccncc2)C(=O)N(Cc2ccccc2)c2ccsc21 [EX. 46]	23 (≈ 61.3 µM)	3 (≈ 7.99 µM)	–
CC(C)(CO)[C@@H](O)C(=O)NCCCO [dexpanthenol]	–	–	enhancement of antiviral activity (herpes virus): significantly enhances the antiviral activity
CC(C)(CO)[C@@H](O)C(=O)NCCC(=O)O [pantothenic acid]	–	–	enhancement of antiviral activity (herpes virus): significantly enhances the antiviral activity
